Measured values from patent US10576147B2, “Muramyl peptide derivative compound, synthesis and uses thereof” (BHARAT BIOTECH INTERNATIONAL LIMITED, priority 2015, dated 2020).

Experiments:
BALB/c mice [1] = assay: OVA-specific IgG after immunization (indirect ELISA); type: in vivo; details: OVA 100 μg alone, s.c. Days 1 and 15, sera 2 weeks after last immunization
Experimental: (§1) Male BALB/c mice were immunized subcutaneously with OVA 100 μg alone or with OVA 100 μg dissolved in saline containing analogues (7.5, 15 or 30 μg) on Days 1 and 15. Sera were collected 2 weeks after the last immunization. OVA-specific IgG antibodies in the sera were measured by an Indirect ELISA. The values are presented as log 2 titre.

BALB/c mice [2] = assay: Total IgG1 and IgG2a after immunization (sandwich ELISA); type: in vivo; details: OVA 100 μg alone
Experimental: as §1, with “Total IgG1 and IgG2a” for “OVA-specific IgG”, “Sandwich” for “an Indirect”

Substance: OVA: Ovalbumin (OVA) antigen, given alone
- Log(2) IgG Antibody Titre (BALB/c mice [1]): 12.64
- Log(2) Total IgG1 Antibody Titre (BALB/c mice [2]): 14.39
- Log(2) Total IgG2a Antibody Titre (BALB/c mice [2]): 11.89
